Experimental data from PubChem BioAssay (NCI).
Values joined by “and” are separate entries in the source; they are usually repeats but may differ in a detail not shown here. Equal entries are not always repeated.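 Test compounds were applied to cells in 96-well plates for 48 hours at 5 doses. Abbreviation: GI50, concentration required for 50% inhibition of growth. TGI marks complete inhibition of growth.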

Columns and labels:
Assay in all cases: NCI anticancer screen, dose series, 48 h
OVCAR-5 ovarian = test system: OVCAR-5 ovarian
NCI-H23 lung = test system: NCI-H23 lung
T-47D breast = test system: T-47D breast
MOLT-4 leukemia = test system: MOLT-4 leukemia
NCI-H226 lung = test system: NCI-H226 lung
UO-31 renal = test system: UO-31 renal
A498 renal = test system: A498 renal
CAKI-1 renal = test system: CAKI-1 renal
MALME-3M melanoma = test system: MALME-3M melanoma
KM12 colon = test system: KM12 colon

| Structure (SMILES) | GI50 (OVCAR-5 ovarian) [µM] | TGI (OVCAR-5 ovarian) [µM] | GI50 (NCI-H23 lung) [µM] | TGI (NCI-H23 lung) | GI50 (T-47D breast) [µM] | TGI (T-47D breast) | GI50 (MOLT-4 leukemia) [µM] | TGI (MOLT-4 leukemia) | GI50 (NCI-H226 lung) [µM] | TGI (NCI-H226 lung) | GI50 (UO-31 renal) [µM] | TGI (UO-31 renal) [µM] | GI50 (A498 renal) [µM] | TGI (A498 renal) [µM] | GI50 (CAKI-1 renal) [µM] | TGI (CAKI-1 renal) | GI50 (MALME-3M melanoma) [µM] | TGI (MALME-3M melanoma) [µM] | GI50 (KM12 colon) [µM] | TGI (KM12 colon) |
| --- | --- | --- | --- | --- | --- | --- | --- | --- | --- | --- | --- | --- | --- | --- | --- | --- | --- | --- | --- | --- |
| N#Cc1ccc(C#Cc2ccccc2C#CCCCCO)cc1 | 15.1 | 28.4 | 17.2 | 33.8 µM | 13 | 28 µM | 17.8 | 37.7 µM | 20.9 | 38.6 µM | 16.9 | 35.3 | 13.8 | 27.7 | 21 | 39.8 µM | 21 | 38.7 | 17.8 | 36.2 µM |
| Cn1c(N2NC(=O)C(N=Nc3ccc(S(N)(=O)=O)cc3)C2=O)nc(-c2ccco2)c(C#N)c1=O (stereo not drawn) | > 50 | > 50 | 12.8 | > 50 µM | 7.58 | 19.7 µM | 9.27 | 27.8 µM | > 50 | > 50 µM | > 50 | > 50 | > 50 | > 50 | 11.9 | > 50 µM | 0.0614 | 7.62 | > 50 | > 50 µM |
| Cc1ccc(S(=O)(=O)N(CCOc2ccc(/C(N)=N/Cl)cc2)CCOc2ccc(/C(N)=N\Cl)cc2)cc1 | > 100 | > 100 | 12 | 40.1 µM | 15.3 | 81.7 µM | 30.6 | > 100 µM | 59.6 | > 100 µM | > 100 | > 100 | 52.3 | > 100 | 76.6 | > 100 µM | 19.6 | 83.6 | 12.4 | 28.1 µM |
| Nc1ccn(C2O[C@H](CO)[C@@H](O)[C@@H]2O)c(=O)n1 (stereo partly drawn) |  | > 100 | 30.4 | > 100 µM |  | > 100 µM | 16.1 | > 100 µM |  | > 100 µM |  | > 100 |  | > 100 |  | > 100 µM | 79.6 | > 100 |  | > 100 µM |
| O=[N+]([O-])/C=C\c1ccc(Cl)c(Cl)c1 | 8.89 | 31.3 | 1.63 | 3.31 µM | 2.82 | 13.9 µM | 1.55 | 6.9 µM | 12 | 27.9 µM | 1.08 | 2.33 | 0.667 | 3.81 | 1.32 | 2.88 µM | 1.46 | 6.05 | 2.08 | 4.56 µM |
| N#C/C(=C1C=C/C(=N/O)C(Br)=C/1)c1ccccc1 | 2.6 | 6.8 | 5.26 | 96.8 µM | 2.19 | 20.6 µM | 2.93 | 11.5 µM | 3.59 | 11.6 µM | 2.04 | 15.4 | 2.57 | 16.7 | 0.7 | 12.7 µM | 4.72 | 22.6 | 0.347 | 1.42 µM |
| CCOC(=O)/C=C(/C(=O)OCC)n1cc(Cl)c(=O)n(CC(=O)OCC)c1=O | 36.6 |  | 20 | 10.8 µM and 41.5 µM | 1.31 | 18.9 µM and 4.28 µM | 3.29 | 25 µM and 10.5 µM |  | > 25 µM and 32.5 µM |  |  |  | 34.6 |  | 7.64 µM and 5.5 µM |  | 10.3 | 21.2 | > 25 µM and 43.8 µM |
| Cn1cc(-c2cnc3ccc(NC(=O)Nc4ccc(F)c(Br)c4)cc3n2)cn1 | 1.94 | 4.53 | 1.75 | 3.91 µM | 0.631 | 2.27 µM |  |  | 1.52 | 3.64 µM | 1.42 | 3.07 | 1.51 | 4.04 | 2.05 | 5.57 µM | 1.56 | 3.55 | 1.71 | 3.65 µM |
| CCNCCNc1cc(-c2ccc(C(=O)OC)cc2)c(C#N)c2nc3ccccc3n12 | 3.08 | > 100 | 3.82 | > 100 µM | 2.16 | 5.31 µM |  |  | 2.02 | 8.39 µM | 1.53 | 2.95 | 1.99 | 5.13 | 2.92 | > 100 µM | 1.95 | 3.69 | 2.59 | > 100 µM |
| COC(=O)CCCCN=Cc1c(O)c(O)c(C(C)C)c2cc(C)c(-c3c(C)cc4c(C(C)C)c(O)c(O)c(C=NCCCCC(=O)OC)c4c3O)c(O)c12 |  |  | 1.07 | 27 µM | 0.692 | 8.04 µM | 0.783 | 19.2 µM | 1.3 | 8.38 µM | 0.923 | 26.5 | 1.79 | > 32.5 | 1.17 | > 32.5 µM | 1.47 | > 32.5 | 0.799 | > 32.5 µM |
| N#CSCC1CC(O)(c2ccccc2)C(c2ccccc2)C(c2ccc(Cl)cc2)O1 (stereo not drawn) | 2.13 | 3.86 | 1.57 | 3.03 µM | 1.07 | 3.53 µM |  |  | 2.27 | 4.62 µM | 1.33 | 2.68 | 2.16 | 5.63 | 1.67 | 4.14 µM | 1.52 | 3.02 |  |  |
| C=C(CN1CCc2ccccc2C1)c1ccc(C(=O)Nc2cnccn2)cc1 | > 100 | > 100 | 18.4 | > 100 µM | > 100 | > 100 µM | 5.82 | > 100 µM | > 100 | > 100 µM | 24.4 | > 100 | 33.4 | > 100 | 7.77 | > 100 µM |  |  | 12.5 | 56.5 µM |
| O=C(CI)NC1Oc2ccccc2-c2oc(=O)c(-c3ccccc3)cc21 (stereo not drawn) |  |  |  |  | 1.79 | 4.44 µM |  |  | 3.32 | 29 µM | 1.86 | 3.28 | 1.85 | 3.62 | 1.67 | 3.05 µM | 1.73 | 3.27 | 1.77 | 3.46 µM |
